# Patent publication US8541588B2, “Sulfonamide derivatives” (Pfizer Limited, priority 2009, dated 2013)
# Target: T1, Nav1.7 (or SCN9A) channel; HEK cells stably transfected with hSCN9A (Homo sapiens, UniProt Q15858)
# T1 construct: expressed in transfected cells
# Assay: Nav1.7 block, PatchXpress 7000 automated whole-cell voltage clamp, estimated IC50 (EIC50)
# Format: cell-based
# Conditions: PatchXpress platform; hSCN9A HEK cells held at V1/2 of inactivation; estimated IC50
# T1 sequence (Q15858 whole entry): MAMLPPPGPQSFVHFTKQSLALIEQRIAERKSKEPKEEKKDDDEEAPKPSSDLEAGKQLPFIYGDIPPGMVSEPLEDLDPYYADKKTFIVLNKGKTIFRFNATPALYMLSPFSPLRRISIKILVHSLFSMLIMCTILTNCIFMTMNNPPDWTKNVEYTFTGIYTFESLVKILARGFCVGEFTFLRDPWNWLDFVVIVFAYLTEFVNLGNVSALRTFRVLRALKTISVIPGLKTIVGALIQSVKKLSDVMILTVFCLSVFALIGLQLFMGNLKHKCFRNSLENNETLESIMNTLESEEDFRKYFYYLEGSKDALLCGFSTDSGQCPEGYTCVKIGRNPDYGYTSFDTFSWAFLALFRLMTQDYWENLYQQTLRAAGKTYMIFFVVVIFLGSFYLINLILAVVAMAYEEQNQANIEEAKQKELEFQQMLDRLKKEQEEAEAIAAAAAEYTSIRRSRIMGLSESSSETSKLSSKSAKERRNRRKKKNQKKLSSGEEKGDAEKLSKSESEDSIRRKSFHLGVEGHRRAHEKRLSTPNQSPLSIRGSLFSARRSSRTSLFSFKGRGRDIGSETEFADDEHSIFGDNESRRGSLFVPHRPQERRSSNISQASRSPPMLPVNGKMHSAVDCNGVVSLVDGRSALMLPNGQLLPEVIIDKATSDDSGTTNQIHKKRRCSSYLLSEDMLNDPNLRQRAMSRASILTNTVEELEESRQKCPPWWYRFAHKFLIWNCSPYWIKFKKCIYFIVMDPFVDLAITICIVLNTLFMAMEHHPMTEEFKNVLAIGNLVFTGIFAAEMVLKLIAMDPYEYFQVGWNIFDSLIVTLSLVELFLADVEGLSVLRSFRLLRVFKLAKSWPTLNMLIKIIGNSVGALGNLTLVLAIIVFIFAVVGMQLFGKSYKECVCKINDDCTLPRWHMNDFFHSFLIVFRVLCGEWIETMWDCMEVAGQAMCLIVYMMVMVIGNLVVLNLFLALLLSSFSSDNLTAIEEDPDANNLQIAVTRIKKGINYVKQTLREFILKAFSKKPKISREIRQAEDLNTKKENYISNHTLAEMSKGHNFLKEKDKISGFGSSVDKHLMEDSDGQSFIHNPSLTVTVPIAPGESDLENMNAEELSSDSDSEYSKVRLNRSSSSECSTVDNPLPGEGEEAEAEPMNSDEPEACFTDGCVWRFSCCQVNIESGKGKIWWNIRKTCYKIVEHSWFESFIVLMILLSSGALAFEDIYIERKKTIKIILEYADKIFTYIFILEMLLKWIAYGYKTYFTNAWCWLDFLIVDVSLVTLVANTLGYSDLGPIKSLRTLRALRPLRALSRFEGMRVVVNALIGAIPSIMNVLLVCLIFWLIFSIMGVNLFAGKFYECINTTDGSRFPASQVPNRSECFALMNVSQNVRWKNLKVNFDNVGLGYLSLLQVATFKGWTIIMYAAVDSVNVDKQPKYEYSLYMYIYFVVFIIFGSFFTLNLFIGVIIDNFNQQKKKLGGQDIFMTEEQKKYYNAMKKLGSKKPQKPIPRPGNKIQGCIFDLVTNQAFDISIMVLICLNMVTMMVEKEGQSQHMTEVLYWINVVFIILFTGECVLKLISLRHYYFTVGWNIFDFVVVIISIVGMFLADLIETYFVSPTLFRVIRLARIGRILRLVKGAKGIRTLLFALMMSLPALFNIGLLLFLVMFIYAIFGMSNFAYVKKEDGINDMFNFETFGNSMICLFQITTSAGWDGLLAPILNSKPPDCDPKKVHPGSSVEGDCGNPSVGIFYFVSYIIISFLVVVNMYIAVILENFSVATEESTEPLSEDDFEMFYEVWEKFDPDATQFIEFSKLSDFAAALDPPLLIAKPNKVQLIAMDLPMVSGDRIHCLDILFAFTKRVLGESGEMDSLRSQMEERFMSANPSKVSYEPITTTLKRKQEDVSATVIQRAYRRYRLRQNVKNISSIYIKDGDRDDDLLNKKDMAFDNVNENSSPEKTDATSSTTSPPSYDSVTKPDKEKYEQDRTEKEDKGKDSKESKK
row,Molecule,IC50
1,"CCn1nc(C)c(-c2ccccc2Oc2ccc(S(=O)(=O)Nc3ncns3)cc2C#N)c1C [Example 72, 3-cyano-4-[2-(1-ethyl-3,5-dimethyl-1H-pyrazol-4-yl)phenoxy]-N-1,2,4-thiadiazol-5-ylbenzenesulfonamide]",>300 nM
2,"O=S(=O)(Nc1ncns1)c1ccc(Oc2ccccc2-c2ccccc2)c(Cl)c1 [Example 150, 4-(biphenyl-2-yloxy)-3-chloro-N-1,2,4-thiadiazol-5-ylbenzenesulfonamide]",190 nM

# Now from value to molecule:
row,IC50,Molecule
1,110 nM,"N#Cc1cc(S(=O)(=O)Nc2nccs2)ccc1Oc1cccc(Cl)c1-c1ccn[nH]1 [Example 199, 4-[3-chloro-2-(2H-pyrazol-3-yl)-phenoxy]-3-cyano-N-thiazol-2-yl-benzenesulfonamide]"
2,12900 nM,"Cn1ccnc1NS(=O)(=O)c1ccc(Oc2ccccc2-c2ccccc2)c(C#N)c1 [Example 113, 4-(biphenyl-2-yloxy)-3-cyano-N-(1-methyl-1H-imidazol-2-yl)benzenesulfonamide]"
3,9170 nM,"CC(C)(C)n1ccc(-c2ccc(Oc3ccc(S(=O)(=O)Nc4nccs4)cc3C#N)c(F)c2)n1 [Example 184, 4-[4-(1-tert-butyl-1H-pyrazol-3-yl)-2-fluoro-phenoxy]-3-cyano-N-thiazol-2-yl-benzenesulfonamide]"

# Same assay, conditions: estimated IC50; hSCN9A HEK cells, PatchXpress platform; Examples 283-814
row,Molecule,IC50
1,"4-(4-chloro-2-piperidin-4-ylphenoxy)-2,5-difluoro-N-1,2,4-thiadiazol-5-ylbenzenesulfonamide [Example 636]",8.4 nM
2,"N#Cc1cc(S(=O)(=O)Nc2nccs2)ccc1Oc1cccc(-n2nc(C(F)F)cc2CO)c1 [Example 390, 3-cyano-4-{3-[3-(difluoromethyl)-5-(hydroxymethyl)-1H-pyrazol-1-yl]phenoxy}-N-1,3-thiazol-2-ylbenzenesulfonamide]",300 nM
3,"O=S(=O)(Nc1nncs1)c1cc(Cl)c(Oc2ccc(Cl)cc2-c2cn[nH]c2)cc1F [Example 564, 5-chloro-4-[4-chloro-2-(1H-pyrazol-4-yl)phenoxy]-2-fluoro-N-1,3,4-thiadiazol-2-ylbenzenesulfonamide]",9.2 nM
4,"O=S(=O)(Nc1ncns1)c1cc(F)c(Oc2cc(F)c(Cl)cc2-c2cn[nH]c2)cc1F [Example 757, 4-[4-chloro-5-fluoro-2-(1H-pyrazol-4-yl)phenoxy]-2,5-difluoro-N-1,2,4-thiadiazol-5-ylbenzenesulfonamide]",0.9 nM
5,"Nc1[nH]ncc1-c1cc(Cl)ccc1Oc1cc(F)c(S(=O)(=O)Nc2ncc(Cl)s2)cc1F [Example 467, 4-[2-(5-amino-1H-pyrazol-4-yl)-4-chlorophenoxy]-N-(5-chloro-1,3-thiazol-2-yl)-2,5-difluorobenzenesulfonamide]",9.6 nM

# Continued, values first:
row,IC50,Molecule
1,2300 nM,"N#Cc1cc(S(=O)(=O)Nc2cscn2)ccc1Oc1ccc(Cl)c(Cn2ccnc2)c1 [Example 418, 4-[4-chloro-3-(1H-imidazol-1-ylmethyl)phenoxy]-3-cyano-N-1,3-thiazol-4-ylbenzenesulfonamide]"
2,>3000 nM,"Cc1nc(-c2cccc(Oc3ccc(S(=O)(=O)Nc4ccc(F)cn4)cc3C#N)c2)no1 [Example 574, 3-cyano-N-(5-fluoropyridin-2-yl)-4-[3-(5-methyl-1,2,4-oxadiazol-3-yl)phenoxy]benzenesulfonamide]"
3,480 nM,"Cn1nccc1-c1cc(Cl)ccc1Oc1ccc(S(=O)(=O)Nc2ccncn2)cc1C#N [Example 361, 4-[4-chloro-2-(1-methyl-1H-pyrazol-5-yl)phenoxy]-3-cyano-N-pyrimidin-4-ylbenzenesulfonamide]"
4,580 nM,"CC(C)n1cc(-c2cc(Cl)ccc2Oc2ccc(S(=O)(=O)Nc3ncns3)cc2C#N)cn1 [Example 283, 4-[4-chloro-2-(1-isopropyl-1H-pyrazol-4-yl)phenoxy]-3-cyano-N-1,2,4-thiadiazol-5-ylbenzenesulfonamide]"
5,>10000 nM,"Cc1cnc(NS(=O)(=O)c2ccc(Oc3ccccc3-c3ccccc3)c(C#N)c2)nc1 [Example 429, 4-(biphenyl-2-yloxy)-3-cyano-N-(5-methylpyrimidin-2-yl)benzenesulfonamide]"
6,56 nM,"Cn1nc(C(F)(F)F)cc1-c1ccc(Oc2ccc(S(=O)(=O)Nc3ncc(F)s3)cc2C#N)c(Cl)c1 [Example 720, 4-{2-chloro-4-[1-methyl-3-(trifluoromethyl)-1H-pyrazol-5-yl]phenoxy}-3-cyano-N-(5-fluoro-1,3-thiazol-2-yl)benzenesulfonamide]"
7,1200 nM,"Cn1nccc1-c1ccccc1Oc1ccc(S(=O)(=O)Nc2cscn2)cc1C#N [Example 400, 3-cyano-4-[2-(1-methyl-1H-pyrazol-5-yl)phenoxy]-N-1,3-thiazol-4-ylbenzenesulfonamide]"
8,>1000 nM,"N#Cc1cc(S(=O)(=O)Nc2nccs2)ccc1Oc1ccc(-n2cc(Cl)cn2)c(C(=O)O)c1 [Example 497, 2-(4-chloro-1H-pyrazol-1-yl)-5-{2-cyano-4-[(1,3-thiazol-2-ylamino)sulfonyl]phenoxy}benzoic acid]"
9,>1000 nM,"CC(C)Oc1cc(-c2cc(F)ccc2Oc2ccc(S(=O)(=O)Nc3nccs3)cc2C#N)n(C)n1 [Example 310, 3-cyano-4-[4-fluoro-2-(3-isopropoxy-1-methyl-1H-pyrazol-5-yl)phenoxy]-N-1,3-thiazol-2-ylbenzenesulfonamide]"
10,1000 nM,"Cn1cc(-c2cc(Cl)ccc2Oc2ccc(S(=O)(=O)Nc3cscn3)cc2C#N)cn1 [Example 414, 4-[4-chloro-2-(1-methyl-1H-pyrazol-4-yl)phenoxy]-3-cyano-N-1,3-thiazol-4-ylbenzenesulfonamide]"
11,7300 nM,"Cn1ccc(-c2cc(F)ccc2Oc2cc(F)c(S(=O)(=O)Nc3cscn3)cc2Cl)n1 [Example 522, 5-chloro-2-fluoro-4-[4-fluoro-2-(1-methyl-1H-pyrazol-3-yl)phenoxy]-N-1,3-thiazol-4-ylbenzenesulfonamide]"

# Same assay, conditions: estimated IC50; hSCN9A HEK cells, PatchXpress platform; Examples 815-1040
row,Molecule,IC50
1,"O=S(=O)(Nc1nncs1)c1cc(Cl)c(Oc2ccc(Cl)cc2-c2cccc(CN3CCC3)n2)cc1F [Example 831, 4-{2-[6-(azetidin-1-ylmethyl)pyridin-2-yl]-4-chlorophenoxy}-5-chloro-2-fluoro-N-1,3,4-thiadiazol-2-ylbenzenesulfonamide]",63 nM
2,"Cc1cc(S(=O)(=O)Nc2ncns2)c(F)cc1Oc1ccc(C(F)(F)F)cc1-c1ccnnc1 [Example 978, 2-fluoro-5-methyl-4-[2-pyridazin-4-yl-4-(trifluoromethyl)phenoxy]-N-1,2,4-thiadiazol-5-ylbenzenesulfonamide]",4.6 nM
3,"O=S(=O)(Nc1ncns1)c1ccc(Oc2ccc(Cl)cc2C2CCOCC2)c(F)c1 [Example 825, 4-[4-chloro-2-(tetrahydro-2H-pyran-4-yl)phenoxy]-3-fluoro-N-1,2,4-thiadiazol-5-ylbenzenesulfonamide]",190 nM
4,"O=S(=O)(Nc1ncns1)c1cc(F)c(Oc2cc(Cl)c(F)cc2-c2ccnnc2)cc1F [Example 937, 4-(5-chloro-4-fluoro-2-pyridazin-4-ylphenoxy)-2,5-difluoro-N-1,2,4-thiadiazol-5-ylbenzenesulfonamide]",19 nM
5,"Cc1cc(S(=O)(=O)Nc2nncs2)c(F)cc1Oc1ccc(Cl)cc1-c1ccnnc1 [Example 943, 4-(4-chloro-2-pyridazin-4-ylphenoxy)-2-fluoro-5-methyl-N-1,3,4-thiadiazol-2-ylbenzenesulfonamide]",77 nM
6,"CC(=O)N1CC(n2nccc2-c2cc(F)ccc2Oc2cc(F)c(S(=O)(=O)Nc3cscn3)cc2Cl)C1 [Example 989, 4-{2-[1-(1-acetylazetidin-3-yl)-1H-pyrazol-5-yl]-4-fluorophenoxy}-5-chloro-2-fluoro-N-1,3-thiazol-4-ylbenzenesulfonamide]",950 nM
7,"O=S(=O)(Nc1ncns1)c1ccc(Oc2ccc(C(F)(F)F)cc2-c2ccnnc2)c(C(F)(F)F)c1 [Example 976, 4-[2-pyridazin-4-yl-4-(trifluoromethyl)phenoxy]-N-1,2,4-thiadiazol-5-yl-3-(trifluoromethyl)benzenesulfonamide]",2.5 nM
8,"Nc1cccc(-c2cc(OC(F)(F)F)ccc2Oc2cc(F)c(S(=O)(=O)Nc3ncns3)cc2F)n1 [Example 830, 4-[2-(6-aminopyridin-2-yl)-4-(trifluoromethoxy)phenoxy]-2,5-difluoro-N-1,2,4-thiadiazol-5-ylbenzenesulfonamide]",23 nM
9,"Nc1cc(-c2cc(F)ccc2Oc2cc(F)c(S(=O)(=O)Nc3ncccn3)cc2Cl)ccn1 [Example 949, 4-[2-(2-aminopyridin-4-yl)-4-fluorophenoxy]-5-chloro-2-fluoro-N-pyrimidin-2-ylbenzenesulfonamide]",87 nM

# Now from value to molecule:
row,IC50,Molecule
1,6.4 nM,"N#Cc1cc(S(=O)(=O)Nc2ncns2)ccc1Oc1ccc(Cl)cc1-c1cccc(C(=O)N2CCC2)c1 [Example 854, 4-{[3′-(azetidin-1-ylcarbonyl)-5-chlorobiphenyl-2-yl]oxy}-3-cyano-N-1,2,4-thiadiazol-5-ylbenzenesulfonamide]"
2,170 nM,"O=S(=O)(Nc1cscn1)c1ccc(Oc2ccc(Cl)cc2-c2ccn[nH]2)c(Cl)c1 [Example 911, 3-chloro-4-[4-chloro-2-(1H-pyrazol-5-yl)phenoxy]-N-1,3-thiazol-4-ylbenzenesulfonamide]"
3,320 nM,"N#Cc1cc(S(=O)(=O)Nc2nncs2)ccc1Oc1ccc(Cl)cc1-c1ccnc(N)c1 [Example 818, 4-[2-(2-aminopyridin-4-yl)-4-chlorophenoxy]-3-cyano-N-1,3,4-thiadiazol-2-ylbenzenesulfonamide]"
4,14 nM,"CC(C)N1CC(n2nccc2-c2cc(Cl)ccc2Oc2ccc(S(=O)(=O)Nc3cscn3)cc2C#N)C1 [Example 861, 4-{4-chloro-2-[1-(1-isopropylazetidin-3-yl)-1H-pyrazol-5-yl]phenoxy}-3-cyano-N-1,3-thiazol-4-ylbenzenesulfonamide]"
5,28 nM,"Cc1cnccc1-c1cc(Cl)ccc1Oc1ccc(S(=O)(=O)Nc2ncns2)cc1C#N [Example 1011, 4-[4-chloro-2-(3-methylpyridin-4-yl)phenoxy]-3-cyano-N-1,2,4-thiadiazol-5-ylbenzenesulfonamide]"
